Our source for the IC50 and CC50 values is patent US20230331715A1, “SPIRO[3.3]HEPTANE DERIVATIVES FOR THE TREATMENT AND PROPHYLAXIS OF HEPATITIS B VIRUS INFECTION” (priority 2020, published 2023).

Molecules are shown by their SMILES. Where two headings read alike, the source gives them in different places.

Common to all, as to assay type: cell-based
One data set deals with HBeAg. The data set is described as follows: PHH HBV natural infection assay, HBeAg (alphalisa). As to the method:
(§1) Detailed procedures regarding primary human hepatocyte (PHH) HBV natural infection assay are described as below. One tube of frozen PHH (10 million cells) is thawed in 37° C. water bath and then transferred to 20 mL of PHH thawing medium (Sigma, InVitroGRO HT Medium, Cat. S03319) with gently mixing. The cells were then centrifuged at […] for 5 min, the supernatant was discarded and the tube was refilled with 25 mL of PHH plating medium (Sigma, InVitroGRO CP Medium, Cat. S03317). The tube was shaken very gently to re-suspend all cells, and then 50 µl of cells were transferred to each well 384-well collagen I coated plate with appropriate liquid handling equipment, e.g. Integra VIAFLO384 or Agilent Bravo. The cells were then cultured for 24 hours in a cell incubator. For HBV infection, after PHH attachment on the culture plate, the plating medium was removed and replenished with PHH culture medium containing HBV virus. The PHH culture medium was prepared with Dulbecco’s Modified Eagle Medium (DMEM)/F12 (1: 1 in volume ratio) containing 10% fetal bovine serum (Gibco, Cat. 10099141), 5 ng/mL human epidermal growth factor (Gibco, Cat.PHG0311L), 20 ng/mL dexamethasone (Sigma, Cat.D4902-100mg), 250 ng/mL human recombinant insulin (Gibco, Cat.41400045) and 100 U/mL penicillin. HBV virus at 200 genome equivalent (GE) per cell with 4% PEG8000 (Sigma, Cat.P1458) containing culture medium were added to the PHH culture medium for infection. The cells were then cultured for 24 hours in cell incubator. Then the cell culture supernatant was removed. The HBV-infected PHH were cultured with sandwich culture method with PHH culture medium containing 1% DMSO and 0.25 mg/mL matrix gel for 72 hours. The supernatant was then refreshed with PHH culture medium containing different concentrations of testing compounds for two times with 72-hour interval. At the end of treatment, the supernatant was collected for viral markers measurements, including HBsAg, HBeAg, HBV DNA and cytotoxicity. HBsAg and HBeAg were detected using alphalisa method using their specific antibodies. For HBV DNA detection, HBV DNA Quantitative Fluorescence Diagnostic Kit (Sansure Biotech Inc.) was used following the manufacture’s protocol. Cytotoxicity was determined using Cell Counting Kit-8 (CCK8, Dojindo Molecular Technologies, Inc.).
(§2) The compounds of the present invention were tested for their capacity to inhibit HBsAg and HBeAg as described herein.
Background: In Alpha technology, singlet oxygen from a donor bead excites a nearby acceptor bead.

The nature of data set [1]: Cytotoxicity in PHH natural infection assay (Cell Counting Kit-8). To be noted: human; HBV-infected PHH, CCK8, compound refreshed two times with 72-hour interval. The procedure: as §1
A general note: Formazan colour is commonly taken as a measure of viable cells.

The subject of a further data set is HBsAg. The data set is described as follows: PHH HBV natural infection assay, HBsAg (alphalisa). The procedure:
as §1, §2

[2] abbreviates: Hepatitis B virus, 72 h, read-out: HBeAg IC50, HBV-infected PHH, culture supernatant, compound refreshed two times with 72-hour interval, alphalisa.
Setting [3] is: Hepatitis B virus, 72 h, read-out: HBsAg IC50, HBV-infected PHH, culture supernatant, compound refreshed two times with 72-hour interval, alphalisa.
Setting [4] is: read-out: HBeAg IC50, HBV-infected PHH, culture supernatant, compound refreshed two times with 72-hour interval, alphalisa.
The mark [5] stands for this setting: read-out: HBsAg IC50, HBV-infected PHH, culture supernatant, compound refreshed two times with 72-hour interval, alphalisa.

As for `CN1CCC(C(=O)NC2CC3(C2)CC(c2nc4cc(Cl)ccc4s2)C3)CC1=O` (stereo not drawn) [Example 32, N-[6-(5-chloro-1,3-benzothiazol-2-yl)spiro[3.3]heptan-2-yl]-1-methyl-2-oxo-piperidine-4-carboxamide], the figures for the 50% inhibitory concentration (IC50) in the data set with HBeAg (setting [2]) and in the data set with HBsAg (setting [3]) were 4.13 µM and 6.11 µM, respectively. Besides, the cytotoxic concentration (CC50) at 144 h in data set [1] was over 10 µM.

Take `[H][C@]1(NC(=O)c2ccnc(S(=O)(=O)C3CC3)c2)C[C@]2(C1)C[C@]([H])(c1nc3cc(Cl)ccc3s1)C2` (single isomer, unassigned) [Example 55-b, (Ra)-N-[6-(5-chloro-1,3-benzothiazol-2-yl)spiro[3.3]heptan-2-yl]-2-cyclopropylsulfonyl-pyridine-4-carboxamide]: the concentration for half-maximal inhibition (IC50) in the data set with HBeAg (setting [4]) came out at 0.4 µM; in the data set on HBsAg (setting [5]) it was 0.54 µM. This compound yielded a 50% cytotoxic concentration (CC50) at 144 h in data set [1] of 11.6 µM.

Regarding `CC(C)(C)S(=O)(=O)c1cc(C(=O)NC2CC3(C2)CC(c2nc4cc(Cl)ccc4s2)C3)ccn1` (stereo not drawn) [Example 38, 2-tert-butylsulfonyl-N-[6-(5-chloro-1,3-benzothiazol-2-yl)spiro[3.3]heptan-2-yl]pyridine-4-carboxamide], the IC50 in the data set with HBeAg (setting [2]) is 1.49 µM; in the data set on HBsAg (setting [3]) it was 1.95 µM. Further, the half-maximal cytotoxic concentration (CC50) at 144 h in data set [1] came out at 30.8 µM.

As to `CC(C)Oc1cc(C(=O)NC2CC3(C2)CC(c2nc4cc(Cl)ccc4s2)C3)ccn1` (stereo not drawn) [Example 43, N-[6-(5-chloro-1,3-benzothiazol-2-yl)spiro[3.3]heptan-2-yl]-2-isopropoxy-pyridine-4-carboxamide], the IC50 with HBeAg (setting [2]) is 2.86 µM; with HBsAg (setting [3]), 3.23 µM. In data set [1], the CC50 at 144 h is over 10 µM.

Regarding `O=C(CN1CCCCS1(=O)=O)NC1CC2(C1)CC(c1nc3cc(Cl)ccc3s1)C2` (stereo not drawn) [Example 35, N-[6-(5-chloro-1,3-benzothiazol-2-yl)spiro[3.3]heptan-2-yl]-2-(1,1-dioxothiazinan-2-yl)acetamide], the results for the half-maximal inhibitory concentration (IC50) with HBeAg (setting [2]) and in the data set on HBsAg (setting [3]) were 2.98 µM and 3.18 µM, respectively. The compound also showed a 50% cytotoxic concentration (CC50) at 144 h in data set [1] of over 10 µM.

Regarding `[H][C@]1(NC(=O)c2cc(C(N)=O)ncn2)C[C@]2(C1)C[C@]([H])(c1nc3cc(Cl)ccc3s1)C2` (single isomer, unassigned) [Example 56-b, (Ra)-N6-[6-(5-chloro-1,3-benzothiazol-2-yl)spiro[3.3]heptan-2-yl]pyrimidine-4,6-dicarboxamide], the IC50 was 2.27 µM in the data set with HBeAg (setting [4]) and 3.3 µM with HBsAg (setting [5]). Further, in data set [1], the 50% cytotoxic concentration (CC50) at 144 h is over 10 µM.

Regarding `NS(=O)(=O)c1cccc(C(=O)NC2CC3(C2)CC(c2nc4cc(Cl)ccc4s2)C3)c1` (stereo not drawn) [Example 2, N-[6-(5-chloro-1,3-benzothiazol-2-yl)spiro[3.3]heptan-2-yl]-3-sulfamoyl-benzamide], the IC50 came to 3.33 µM in the data set with HBeAg (setting [2]) and 3.71 µM in the data set on HBsAg (setting [3]). Besides, the CC50 at 144 h in data set [1] was over 10 µM.

Regarding `N#Cc1cc(C(=O)NC2CC3(C2)CC(c2nc4cc(Cl)ccc4s2)C3)ccn1` (stereo not drawn) [Example 5, N-[6-(5-chloro-1,3-benzothiazol-2-yl)spiro[3.3]heptan-2-yl]-2-cyano-pyridine-4-carboxamide], the IC50 in the data set with HBeAg (setting [2]) is 2.92 µM; with HBsAg (setting [3]), 3.47 µM. The CC50 at 144 h in data set [1] is over 10 µM.

In the case of `N=S(=O)(c1cc(C(=O)NC2CC3(C2)CC(c2nc4cc(Cl)ccc4s2)C3)ccn1)C1CC1` (stereo not drawn) [Example 41, N-[6-(5-chloro-1,3-benzothiazol-2-yl)spiro[3.3]heptan-2-yl]-2-(cyclopropylsulfonimidoyl)pyridine-4-carboxamide], the results for the IC50 with HBeAg (setting [2]) and with HBsAg (setting [3]) were 0.67 µM and 0.9 µM, respectively. The compound further gave a 50% cytotoxic concentration (CC50) at 144 h in data set [1] of over 10 µM.

For the compound `CC(C)(c1cc(C(=O)NC2CC3(C2)CC(c2nc4cc(Cl)ccc4s2)C3)ccn1)S(C)(=O)=O` (stereo not drawn) [Example 8, N-[6-(5-chloro-1,3-benzothiazol-2-yl)spiro[3.3]heptan-2-yl]-2-(1-methyl-1-methylsulfonylethyl)pyridine-4-carboxamide], the IC50 came to 1.23 µM in the data set on HBeAg (setting [2]) and 1.89 µM in the data set on HBsAg (setting [3]). The same compound had a 50% cytotoxic concentration (CC50) at 144 h in data set [1] of 35.9 µM.

As for `O=C(NC1CC2(C1)CC(c1nc3ccc(Cl)cc3s1)C2)c1ccc(C(F)(F)F)o1` (stereo not drawn) [Example 15, N-[6-(6-chloro-1,3-benzothiazol-2-yl)spiro[3.3]heptan-2-yl]-5-(trifluoromethyl)furan-2-carboxamide], the IC50 turned out to be 2.07 µM in the data set on HBeAg (setting [2]) and 2.96 µM in the data set on HBsAg (setting [3]). This compound came in with a CC50 at 144 h in data set [1] of over 100 µM.

With `O=C(NC1CC2(C1)CC(c1nc3cc(Cl)ccc3s1)C2)C1CCS(=O)(=O)N1` (stereo not drawn) [Example 34, N-[6-(5-chloro-1,3-benzothiazol-2-yl)spiro[3.3]heptan-2-yl]-1,1-dioxo-1,2-thiazolidine-3-carboxamide], the IC50 in the data set on HBeAg (setting [2]) turned out to be 5.67 µM; with HBsAg (setting [3]) it was 7.11 µM. The half-maximal cytotoxic concentration (CC50) at 144 h in data set [1] was over 10 µM.

In the case of `O=C(CC1CCCS(=O)(=O)C1)NC1CC2(C1)CC(c1nc3cc(Cl)ccc3s1)C2` (stereo not drawn) [Example 30, N-[6-(5-chloro-1,3-benzothiazol-2-yl)spiro[3.3]heptan-2-yl]-2-(1,1-dioxothian-3-yl)acetamide], the concentration for half-maximal inhibition (IC50) in the data set on HBeAg (setting [2]) and with HBsAg (setting [3]) was 3.47 µM throughout. Also, the CC50 at 144 h in data set [1] was over 10 µM.

For `CCS(=O)(=O)c1cc(C(=O)NC2CC3(C2)CC(c2nc4cc(Cl)ccc4s2)C3)ccn1` (stereo not drawn) [Example 9, N-[6-(5-chloro-1,3-benzothiazol-2-yl)spiro[3.3]heptan-2-yl]-2-ethylsulfonyl-pyridine-4-carboxamide], the IC50 with HBeAg (setting [2]) turned out to be 1.21 µM; in the data set on HBsAg (setting [3]) it was 1.35 µM. The same compound yielded a CC50 at 144 h in data set [1] of 13.4 µM.

On to `O=C(NC1CC2(C1)CC(c1nc3ccc(Cl)cc3s1)C2)c1ccnc(S(=O)(=O)C2CC2)c1` (stereo not drawn) [Example 37, N-[6-(6-chloro-1,3-benzothiazol-2-yl)spiro[3.3]heptan-2-yl]-2-cyclopropylsulfonyl-pyridine-4-carboxamide], for which the IC50 in the data set with HBeAg (setting [2]) came out at 0.2 µM; in the data set on HBsAg (setting [3]), 0.23 µM. For the same compound, in data set [1], the CC50 at 144 h came out at 10.1 µM.

As to `O=C1CCC(CC(=O)NC2CC3(C2)CC(c2nc4cc(Cl)ccc4s2)C3)N1` (stereo not drawn) [Example 33, N-[6-(5-chloro-1,3-benzothiazol-2-yl)spiro[3.3]heptan-2-yl]-2-(5-oxopyrrolidin-2-yl)acetamide], the figures for the IC50 in the data set on HBeAg (setting [2]) and in the data set on HBsAg (setting [3]) were 4.12 µM and 4.08 µM, respectively. Moreover, the cytotoxic concentration (CC50) at 144 h in data set [1] is over 10 µM.

For the compound `[H][C@]1(NC(=O)c2ccnc(C(N)=O)c2)C[C@@]2(C1)C[C@]([H])(c1nc3cc(Cl)ccc3s1)C2` (single isomer, unassigned) [Example 53-a, (Sa)-N4-[6-(5-chloro-1,3-benzothiazol-2-yl)spiro[3.3]heptan-2-yl]pyridine-2,4-dicarboxamide], the IC50 with HBeAg (setting [4]) was found to be 0.24 µM; in the data set on HBsAg (setting [5]), 0.29 µM. Besides, the CC50 at 144 h in data set [1] stood at 36.8 µM.

Regarding `CCN(C)c1cc(C(=O)NC2CC3(C2)CC(c2nc4cc(Cl)ccc4s2)C3)ccn1` (stereo not drawn) [Example 47, N-[6-(5-chloro-1,3-benzothiazol-2-yl)spiro[3.3]heptan-2-yl]-2-[ethyl(methyl)amino]pyridine-4-carboxamide], the half-inhibitory concentration (IC50) in the data set with HBeAg (setting [2]) is 4.8 µM; with HBsAg (setting [3]), 5.85 µM. The 50% cytotoxic concentration (CC50) at 144 h in data set [1] is over 10 µM.

Regarding `NC(=O)c1cc(C(=O)NC2CC3(C2)CC(c2nc4cc(Cl)ccc4s2)C3)ccn1` (stereo not drawn) [Example 11, N4-[6-(5-chloro-1,3-benzothiazol-2-yl)spiro[3.3]heptan-2-yl]pyridine-2,4-dicarboxamide], the IC50 with HBeAg (setting [2]) was found to be 6.81 µM; in the data set on HBsAg (setting [3]) it was 4.06 µM. In addition, the CC50 at 144 h in data set [1] was over 50 µM.

With `O=C(CC1CCCS1(=O)=O)NC1CC2(C1)CC(c1nc3cc(Cl)ccc3s1)C2` (stereo not drawn) [Example 29, N-[6-(5-chloro-1,3-benzothiazol-2-yl)spiro[3.3]heptan-2-yl]-2-(1,1-dioxothiolan-2-yl)acetamide], the IC50 in the data set on HBeAg (setting [2]) amounted to 3.59 µM; with HBsAg (setting [3]), 4.74 µM. The compound also returned a 50% cytotoxic concentration (CC50) at 144 h in data set [1] of over 10 µM.

Regarding `O=C(CC1CS(=O)(=O)C1)NC1CC2(C1)CC(c1nc3cc(Cl)ccc3s1)C2` (stereo not drawn) [Example 28, N-[6-(5-chloro-1,3-benzothiazol-2-yl)spiro[3.3]heptan-2-yl]-2-(1,1-dioxothietan-3-yl)acetamide], the values for the IC50 in the data set on HBeAg (setting [2]) and with HBsAg (setting [3]) were 1.66 µM and 3.28 µM, respectively. This compound displayed a CC50 at 144 h in data set [1] of over 10 µM.

For orientation: IC50 means the point on the concentration scale where inhibition reaches its midpoint. As usually defined, the CC50 is the concentration giving 50% cytotoxicity.
